This test deals with JAK1 (Homo sapiens, UniProt P23458). The experiment in a line: ADP-Glo luminescent kinase assay, recombinant JAK1, Poly E4Y1 substrate, […] ATP. The class given is biochemical.
Chain of JAK1 (P23458 whole entry): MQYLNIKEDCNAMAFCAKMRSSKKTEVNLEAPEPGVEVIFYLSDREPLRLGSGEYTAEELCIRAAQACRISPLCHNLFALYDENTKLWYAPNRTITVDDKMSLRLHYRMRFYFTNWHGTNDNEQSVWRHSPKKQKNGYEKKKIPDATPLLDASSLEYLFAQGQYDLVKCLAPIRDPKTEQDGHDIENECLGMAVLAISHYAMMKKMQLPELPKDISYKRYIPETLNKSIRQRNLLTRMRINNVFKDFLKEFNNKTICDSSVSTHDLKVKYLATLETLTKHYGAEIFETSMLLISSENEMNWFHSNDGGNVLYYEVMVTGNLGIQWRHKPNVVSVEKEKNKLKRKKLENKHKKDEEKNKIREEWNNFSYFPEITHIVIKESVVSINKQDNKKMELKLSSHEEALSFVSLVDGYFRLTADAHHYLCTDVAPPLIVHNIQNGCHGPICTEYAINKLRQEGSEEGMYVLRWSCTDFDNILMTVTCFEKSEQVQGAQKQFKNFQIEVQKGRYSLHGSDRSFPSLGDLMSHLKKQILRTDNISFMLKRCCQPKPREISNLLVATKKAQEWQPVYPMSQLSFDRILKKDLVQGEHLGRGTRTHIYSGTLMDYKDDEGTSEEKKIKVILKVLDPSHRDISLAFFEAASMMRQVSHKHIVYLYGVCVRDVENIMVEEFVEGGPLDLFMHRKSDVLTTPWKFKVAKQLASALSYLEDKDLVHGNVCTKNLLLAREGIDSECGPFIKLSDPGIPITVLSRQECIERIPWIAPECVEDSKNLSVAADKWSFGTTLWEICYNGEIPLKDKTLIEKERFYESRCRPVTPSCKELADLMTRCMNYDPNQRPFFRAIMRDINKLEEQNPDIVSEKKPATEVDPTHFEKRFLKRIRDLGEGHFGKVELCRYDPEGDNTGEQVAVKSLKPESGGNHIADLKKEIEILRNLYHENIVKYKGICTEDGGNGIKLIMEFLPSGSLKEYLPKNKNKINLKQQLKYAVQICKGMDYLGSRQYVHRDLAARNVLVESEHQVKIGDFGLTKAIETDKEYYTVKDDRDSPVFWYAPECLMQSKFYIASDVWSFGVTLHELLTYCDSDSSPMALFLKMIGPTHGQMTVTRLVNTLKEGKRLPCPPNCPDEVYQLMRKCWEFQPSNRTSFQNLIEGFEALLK

A word on the IC50: it is the concentration that gives 50% inhibition. `NC(=O)Nc1sc(-c2ccc(F)cc2)cc1C(N)=O` [TPCA-1, 2-[(aminocarbonyl)amino]-5-(4-fluorophenyl)-3-thiophenecarboxamide]: the IC50 worked out at 43.8 nM.

Source of the values: PMC4619123 (Virology, 2015).
